Key:
[1] = target: T1, human 5-HT2C and its mutants (Homo sapiens, UniProt P28335); experiment: Tango β-arrestin2 recruitment assay, HTLA cells; type: cell-based; settings: for β-arrestin2 recruitment agonist activity (Tango): wild-type 5-HT2C, agonist mode
T1 sequence (P28335 33-458): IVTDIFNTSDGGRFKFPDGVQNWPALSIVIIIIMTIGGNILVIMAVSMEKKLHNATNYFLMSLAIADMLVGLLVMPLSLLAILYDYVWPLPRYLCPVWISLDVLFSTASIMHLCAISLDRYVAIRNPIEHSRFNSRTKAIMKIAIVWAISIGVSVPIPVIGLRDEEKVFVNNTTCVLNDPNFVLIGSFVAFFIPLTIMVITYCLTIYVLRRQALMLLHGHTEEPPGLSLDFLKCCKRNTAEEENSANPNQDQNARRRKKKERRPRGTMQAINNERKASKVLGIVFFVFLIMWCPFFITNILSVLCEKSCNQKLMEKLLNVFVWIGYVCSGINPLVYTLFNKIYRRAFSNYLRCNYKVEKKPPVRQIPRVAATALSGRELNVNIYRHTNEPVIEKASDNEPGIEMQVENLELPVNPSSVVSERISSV

[2] = tested on: overnight fasting male C57BL/6J mice; experiment: Acute feeding suppression; type: in vivo; settings: intraperitoneal; 1857 30 mg/kg, lorcaserin 10 mg/kg; vs vehicle
5-HT2C [3] = target: T2, 5-HT2C (Homo sapiens, UniProt P28335); experiment: cell-based; type: cell-based
T2 sequence (P28335 33-458): T1 sequence (P28335 33-458)

[4] = tested on: diet-induced obesity (DIO) mice; experiment: DIO mice feeding suppression; type: in vivo
5-HT2C [5] = target: T2, 5-HT2C; type: cell-based
5-HT2A = 5-HT2A (Homo sapiens, UniProt P28223); type: cell-based; settings: for Gq agonism for 5-HT2A: agonist mode
[6] = tested on: wild-type or mutant 5-HT2C; experiment: Radiolabeled ligand binding assay, 3H-mesulergine, transfected CHO cells; set-up: species or system human
5-HT2B = 5-HT2B (Homo sapiens, UniProt P41595); experiment: cell-based; type: cell-based; settings: for Gq agonism for 5-HT2B: agonist mode
[7] = 30 mg/kg i.p. daily for 10 days
[8] = 30 mg/kg i.p. daily for 10 days, vs vehicle
[9] = 30 mg/kg i.p. daily, from day 5 until end of study

Sequence of 5-HT2A (P28223 whole entry): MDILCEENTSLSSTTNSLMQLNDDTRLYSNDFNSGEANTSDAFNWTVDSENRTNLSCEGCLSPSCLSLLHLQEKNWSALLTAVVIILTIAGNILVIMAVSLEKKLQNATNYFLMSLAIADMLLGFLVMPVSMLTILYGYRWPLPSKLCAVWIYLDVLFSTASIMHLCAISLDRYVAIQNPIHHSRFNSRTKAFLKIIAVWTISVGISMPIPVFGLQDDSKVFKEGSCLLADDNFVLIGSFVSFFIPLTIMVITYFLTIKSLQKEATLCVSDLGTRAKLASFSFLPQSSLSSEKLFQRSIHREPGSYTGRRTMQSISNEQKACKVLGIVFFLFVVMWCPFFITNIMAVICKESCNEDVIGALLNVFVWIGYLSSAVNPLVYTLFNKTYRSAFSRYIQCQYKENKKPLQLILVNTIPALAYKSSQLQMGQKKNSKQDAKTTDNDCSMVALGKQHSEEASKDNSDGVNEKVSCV
Sequence of 5-HT2B (P41595 whole entry): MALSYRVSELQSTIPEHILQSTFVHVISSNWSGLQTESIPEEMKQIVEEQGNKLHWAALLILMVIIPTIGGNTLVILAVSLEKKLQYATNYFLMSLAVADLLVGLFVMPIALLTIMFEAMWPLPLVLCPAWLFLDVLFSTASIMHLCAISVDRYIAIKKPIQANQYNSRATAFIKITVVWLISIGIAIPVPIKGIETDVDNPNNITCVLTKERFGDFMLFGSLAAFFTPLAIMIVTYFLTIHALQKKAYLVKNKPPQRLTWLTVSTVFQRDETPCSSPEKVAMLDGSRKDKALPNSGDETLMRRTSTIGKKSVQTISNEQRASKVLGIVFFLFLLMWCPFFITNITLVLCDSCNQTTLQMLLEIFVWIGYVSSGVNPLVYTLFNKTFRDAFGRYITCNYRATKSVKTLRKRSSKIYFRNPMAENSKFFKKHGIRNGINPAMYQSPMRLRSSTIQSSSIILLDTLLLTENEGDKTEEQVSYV

Compound: C[C@H]1CNCCc2ccc(Cl)cc21 [Lorcaserin, lorcaserin, reference compound]
- β-arrestin2 recruitment agonist activity (Tango) [1]: full agonist
- acute food intake suppression [2]: suppressed food intake up to 2 h postinjection
- agonist efficacy class in G protein pathway at 5-HT2C (5-HT2C [3]): full agonist

Compound: (R)-asimilobine [Compound 1857]
- blood glucose relative to vehicle [4, 7]: −20.9%
- liver TC and TG levels [4, 7]: decreased liver TC and TG levels
- serum total cholesterol (TC) relative to vehicle [4, 7]: −7.9%
- serum total triglyceride (TG) relative to vehicle [4, 7]: unchanged
- total organ weight of epididymal white adipose tissue (WAT) [4, 8]: −29.3%
- total organ weight of inguinal WAT [4, 8]: −46.4%
- body weight in DIO mice [4, 9]: weight loss
- food intake in DIO mice [4, 9]: Significant reduction of food intake
- β-arrestin2 recruitment agonist activity (BRET) (5-HT2C [5]): does not possess agonist activity
- antagonism of β-arrestin2 association (BRET) (5-HT2C [5]; agonist lorcaserin (4 μM)): acts as an antagonist for β-arrestin2 association
- Gq agonism for 5-HT2A (5-HT2A): none of them exhibited measurable Gq agonism
- enhancement of binding [6]: 6 fold
- antagonism of β-arrestin signaling (Tango) ([1]; against agonist ergotamine): acts as an antagonist
- β-arrestin2 recruitment agonist activity (Tango) [1]: no β-arrestin recruitment activity
- acute food intake suppression [2]: reduced food intake from 30 min to 4 h postinjection
- Gq agonism for 5-HT2B (5-HT2B): none of them exhibited measurable Gq agonism
- in vitro potency for 5-HT2C activation lower than that of lorcaserin (5-HT2C [3]): 2 orders of magnitude
- Emax relative to 5-HT (5-HT2C [3]; Gq-mediated calcium signaling at 5-HT2C): 86.1%

Compound: COc1cc2c3c(c1OC)-c1ccccc1CC3NCC2 (centres unmarked) [Compound 15781, nornuciferine]
- Gq agonism for 5-HT2A (5-HT2A): none of them exhibited measurable Gq agonism
- IC50 (5-HT2B): > 10000 nM
- Gq agonism for 5-HT2B (5-HT2B): none of them exhibited measurable Gq agonism
- EC50 (5-HT2C [3]): 653 nM
- Emax (5-HT2C [3]; HEK-293T, read-out: Emax relative to 5-HT): 65.6%

Compound: COc1cc2c3c(c1OC)-c1ccccc1C[C@H]3N(C)CC2 [Compound 15856, Nuciferine]
- antagonism of Gq-mediated activity at 5-HT2A (5-HT2A): sub-micromolar potency
- antagonism of Gq-mediated activity at 5-HT2B (5-HT2B): sub-micromolar potency
- antagonism of Gq-mediated activity at 5-HT2C (5-HT2C [3]): sub-micromolar potency

— publication PMC7047268 (ACS Central Science, 2020)
